Results on 16 compounds are retold here after article PMC10700596 (Nature Communications, 2023).

For this assay, the target named is T1, EP4R (Homo sapiens, UniProt P35408).
T1 construct: Tango fusion cassette (only 'tango' is printed); expressed in transfected cells; host or cells: HTLA cells (tTA-dependent luciferase reporter, β-arrestin2-TEV fusion)
Kind of assay: PRESTO-Tango β-arrestin2 recruitment assay. It counts as cell-based. To be noted: for IC50: PRESTO-Tango IC50 (nM); for Ki: PRESTO-Tango Ki* (nM). (In general: Activated receptors often draw arrestin, which recruitment assays turn into a signal.)

The mark [1] stands for this setting: PRESTO-Tango -logIC50, antagonist mode, EC80 of PGE2.
The mark [2] stands for this setting: calculated using the Cheng Prusoff equation.

pIC50: −log10 of the molar value.

T1 sequence (P35408 whole entry, the tested form may be a part): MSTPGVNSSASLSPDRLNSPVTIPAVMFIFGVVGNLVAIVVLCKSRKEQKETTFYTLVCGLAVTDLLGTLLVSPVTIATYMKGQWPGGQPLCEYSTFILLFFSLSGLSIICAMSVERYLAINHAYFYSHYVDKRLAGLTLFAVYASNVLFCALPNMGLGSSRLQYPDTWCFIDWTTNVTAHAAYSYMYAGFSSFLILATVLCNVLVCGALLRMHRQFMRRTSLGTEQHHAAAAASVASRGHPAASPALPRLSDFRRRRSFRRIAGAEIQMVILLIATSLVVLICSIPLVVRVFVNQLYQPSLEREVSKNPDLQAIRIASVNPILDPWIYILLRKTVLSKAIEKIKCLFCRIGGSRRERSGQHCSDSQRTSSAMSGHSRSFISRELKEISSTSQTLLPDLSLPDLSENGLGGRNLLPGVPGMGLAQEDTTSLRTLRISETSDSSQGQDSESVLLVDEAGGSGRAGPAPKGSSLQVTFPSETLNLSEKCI

For the compound `CN(c1ncnc2[nH]c3ccccc3c12)C1CC2(CCC(C(=O)O)CC2)C1` (stereo not drawn) [Compound 76, CN(C1CC2(C1)CCC(CC2)C(=O)O)C=3N=CN=C4NC=5C=CC=CC5C34], the IC50 turned out to be 1170 nM and the Ki worked out at 234 nM.

`Cc1cc(C(=O)NC2CCCC(C(=O)O)CC2)c(C)n1-c1ccccc1` (stereo not drawn) [Compound 78, CC1=CC(C(=O)NC2CCCC(CC2)C(=O)O)=C(C)N1C=3C=CC=CC3] registered a Ki of 1420 nM. This compound also showed an IC50 (antagonist mode, EC80 of PGE2) of 7080 nM.

`O=C(O)C1CCC2(CC1)CC(Nc1ncnc3c1oc1ccccc13)C2` (stereo not drawn) [Compound 84, OC(=O)C1CCC2(CC(C2)NC=3N=CN=C4C=5C=CC=CC5OC34)CC1]: the affinity corresponds to a Ki of 1150 nM. The IC50 (antagonist mode, EC80 of PGE2) was determined as 5730 nM.

For the compound `O=C(O)C1CCC2(CC1)CC(Nc1ncnc3sc(-c4ccccc4)cc13)C2` (stereo not drawn) [Compound 85, OC(=O)C1CCC2(CC(C2)NC=3N=CN=C4SC(=CC34)C=5C=CC=CC5)CC1], the pIC50 under setting [1] is 3.11. In addition, for the setting “antagonist mode, EC80 of PGE2”, the IC50 was > 10000 nM.

The compound `Cc1csc2ncnc(NC3CC4(CCC(C(=O)O)CC4)C3)c12` (stereo not drawn) [Compound 86, CC1=CSC=2N=CN=C(NC3CC4(C3)CCC(CC4)C(=O)O)C12] gave an IC50 (antagonist mode, EC80 of PGE2) of 7960 nM. For the same compound, the Ki under setting [2] was 1590 nM.

On to `CC(C)c1ccc2ncnc(NC3CC4(CCC(C(=O)O)CC4)C3)c2c1` (stereo not drawn) [Compound 87, CC(C)C=1C=CC=2N=CN=C(NC3CC4(C3)CCC(CC4)C(=O)O)C2C1], for which the pIC50 under setting [1] was 4.71. For the same compound, the IC50 (antagonist mode, EC80 of PGE2) is > 10000 nM.

For `Cc1cc2c(NC3CC4(CCC(C(=O)O)CC4)C3)ncnc2s1` (stereo not drawn) [Compound 88, CC1=CC=2C(NC3CC4(C3)CCC(CC4)C(=O)O)=NC=NC2S1], the IC50 was > 10000 nM. The same compound gave a pIC50 (PRESTO-Tango -logIC50) of 3.15.

For the setting “antagonist mode, EC80 of PGE2”, `O=C(O)C1CCC2(CC1)CC(Nc1nc(C(F)(F)F)nc3ccccc13)C2` (stereo not drawn) [Compound 90, OC(=O)C1CCC2(CC(C2)NC=3N=C(N=C4C=CC=CC34)C(F)(F)F)CC1] registered an IC50 of 3870 nM. For the same compound, the inhibitory constant (Ki) under setting [2] is 774 nM.

`O=C(O)C1CCC2(CC1)CC(Nc1ncnc3sc4c(c13)CCC4)C2` (stereo not drawn) [Compound 91, OC(=O)C1CCC2(CC(C2)NC=3N=CN=C4SC=5CCCC5C34)CC1] had a Ki of 807 nM. Where the note is “antagonist mode, EC80 of PGE2”, this compound displayed an IC50 of 4030 nM.

For the compound `CC1CCc2c(sc3ncnc(NC4CC5(CCC(C(=O)O)CC5)C4)c23)C1` (stereo not drawn) [Compound 92, CC1CCC2=C(C1)SC=3N=CN=C(NC4CC5(C4)CCC(CC5)C(=O)O)C23], 806 nM corresponded to half-maximal inhibition (antagonist mode, EC80 of PGE2) (IC50). In addition, the Ki under setting [2] is 161 nM.

Under “antagonist mode, EC80 of PGE2”, `Cc1nc(NC2CC3(CCC(C(=O)O)CC3)C2)c2cc(-c3ccccc3)sc2n1` (stereo not drawn) [Compound 93, CC=1N=C(NC2CC3(C2)CCC(CC3)C(=O)O)C=4C=C(SC4N1)C=5C=CC=CC5] yielded an IC50 of 7350 nM. Further, the Ki under setting [2] is 1470 nM.

For the compound `Cc1nc2ncnn2c(NC2CC3(CCC(C(=O)O)CC3)C2)c1C` (stereo not drawn) [Compound 94, CC1=NC2=NC=NN2C(NC3CC4(C3)CCC(CC4)C(=O)O)=C1C], the IC50 is > 10000 nM. Further, the pIC50 (PRESTO-Tango -logIC50) was 4.92.

For the setting “antagonist mode, EC80 of PGE2”, `O=C(NC1CCCC(C(=O)O)CC1)c1nn(-c2ccccc2)c2c1CCC2` (stereo not drawn) [Compound 98, OC(=O)C1CCCC(CC1)NC(=O)C2=NN(C=3CCCC23)C=4C=CC=CC4] came in with an IC50 of 2060 nM. Further, under setting [2], the Ki is 411 nM.

As for `O=C(O)C[C@@H]1CC[C@H](NC(=O)c2csc(C3CCCCC3)c2)C1` [Compound 100, OC(=O)C[C@@H]1CC[C@@H](C1)NC(=O)C2=CSC(=C2)C3CCCCC3], the affinity, expressed as Ki, was 376 nM. Under setting [1], this compound showed a pIC50 of 5.74. The compound also gave an IC50 (antagonist mode, EC80 of PGE2) of 1880 nM.

In turn, `O=C(NC1CCCC(C(=O)O)CC1)c1csc(C2CCCCC2)n1` (stereo not drawn) [Compound 106, OC(=O)C1CCCC(CC1)NC(=O)C2=CSC(=N2)C3CCCCC3] gave a pIC50 under setting [1] of 4.63. The IC50 (antagonist mode, EC80 of PGE2) was > 10000 nM.

Under setting [1], `O=C(NC1CCCC(C(=O)O)CC1)c1csc(Cc2ccccc2)c1` (stereo not drawn) [Compound 107, OC(=O)C1CCCC(CC1)NC(=O)C2=CSC(CC=3C=CC=CC3)=C2] had a pIC50 of 4.64. In addition, the IC50 (antagonist mode, EC80 of PGE2) is > 10000 nM.

What is called IC50 is the concentration at which inhibition is half-maximal. Low readings indicate inhibition by little substance, high ones a need for much substance. What is called Ki is the equilibrium dissociation constant of an inhibitor or competing ligand from its target. As usually defined, the pIC50 is the negative decadic logarithm of the IC50, by convention in mol/L. Read a high pIC50 as a low IC50.
